According to US8410150B2, “Inhibitors of carnitine palmitoyltransferase and treating cancer” (University Health Network, priority 2007, dated 2013):
Where a name gives a salt, the structure may show the parent alone.

What follows are molecules tested against T1, human CPT1A (Homo sapiens, UniProt P50416) (assay: Human CPT1A LC/MS assay). Settings: human CPT1A LC/MS assay, dose response format.
T1 construct: made in house; host or cells: Saccharomyces cerevisiae (pESC-trp) or cultured mammalian cells (pCDNA3.1); mitochondrial extract
T1 sequence (P50416 1-773): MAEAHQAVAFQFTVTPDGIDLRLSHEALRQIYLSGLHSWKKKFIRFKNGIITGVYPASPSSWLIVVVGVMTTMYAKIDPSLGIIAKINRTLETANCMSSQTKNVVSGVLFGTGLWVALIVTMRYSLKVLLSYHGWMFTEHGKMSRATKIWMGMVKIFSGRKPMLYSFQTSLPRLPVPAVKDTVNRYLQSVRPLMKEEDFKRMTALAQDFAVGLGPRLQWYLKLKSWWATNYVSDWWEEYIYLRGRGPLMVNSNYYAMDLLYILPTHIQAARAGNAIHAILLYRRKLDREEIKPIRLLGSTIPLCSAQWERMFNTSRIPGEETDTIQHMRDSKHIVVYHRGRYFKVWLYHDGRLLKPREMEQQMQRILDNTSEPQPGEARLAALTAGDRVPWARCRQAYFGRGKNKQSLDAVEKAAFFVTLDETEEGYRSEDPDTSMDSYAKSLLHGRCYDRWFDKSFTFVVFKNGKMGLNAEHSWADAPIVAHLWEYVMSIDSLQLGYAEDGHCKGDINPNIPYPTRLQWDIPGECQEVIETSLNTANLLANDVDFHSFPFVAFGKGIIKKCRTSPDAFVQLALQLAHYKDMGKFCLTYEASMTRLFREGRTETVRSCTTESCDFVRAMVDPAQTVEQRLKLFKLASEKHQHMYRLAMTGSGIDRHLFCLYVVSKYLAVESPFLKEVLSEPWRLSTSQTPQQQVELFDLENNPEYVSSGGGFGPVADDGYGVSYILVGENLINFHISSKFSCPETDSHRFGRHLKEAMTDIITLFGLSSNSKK
Assay type: biochemical
Source text: Nucleotide sequences encoding human CPT1 enzymes were individually cloned into the yeast expression vector pESC-trp at the Cla1 (5′ terminus) and Pac1 (3′ terminus) restriction sites by PCR amplification of the open reading frame using oligonucleotide primers designed to encode the wild-type CPT1 protein sequence. Standard molecular biology techniques were used to transform and express the CPT1 proteins in the yeast Saccharomyces cerevisiae. The yeast cells were lysed by enzymatic degradation of the cell wall by Zymolase, and the mitochondria were isolated by standard biochemical techniques. The integrity of the isolated mitochondria was monitored by determining the activity of succinate dehydrogenase in the mitochondrial preparations. The mitochondrial extracts were stored at −80° C. in buffer containing 10 mM HEPES pH 7.4 and 250 mM sucrose.
Human CPT1 (A, B, C) genes were additionally cloned into the pCDNA3.1 vector individually for expression in cultured mammalian cells. Cells expressing the exogenous CPT1A were identified and grown under standard conditions. Mammalian cells were harvested, and mitochondrial extracts prepared using standard biochemical methods. The mitochondrial extracts were stored at −80° C. in buffer containing 10 mM HEPES pH 7.4 and 250 mM sucrose.
Assays were performed in 96-well plate format. Each 100 μL reaction contained 40 mM KCl, 50 mM TrisHCl pH 7.5, and 250 mM mannitol (Assay Buffer), and 1.6 μg protein of an extract, 20 μM palmitoyl-CoA, 50 μM L-carnitine, and 10 ug/mL BSA. Reactions were incubated at room temperature and stopped after 10 minutes by extraction with 200 μL of water saturated n-butanol containing myristoyl carnitine (500 nM) as an internal standard. The samples were thoroughly mixed, and the phases separated by centrifugation. Samples were prepared for analysis with a 10 fold dilution of the n-butanol phase containing the reaction product palmitoyl carnitine into a 50:50 (acetonitrile:water) solvent for analysis. […] of prepared sample was separated on a Phenomenex Jupiter 5μ C4 reverse-phase column using an Agilent 1100 HPLC with a gradient from 50% acetonitrile (0.5% acetic acid) to 100% acetonitrile and quantified by detection with a Bruker Esquire 3000plus mass spectrometer. The abundance of the palmitoyl carnitine product was determined relative to the internal standard and the actual quantity of palmitoyl carnitine can be determined from a standard curve prepared using the n-butanol solution containing the internal standard.
Compounds were evaluated in two formats, a screening format, and a dose response format. The screening format was performed by adding 25 μL compound in 20% DMSO and Assay Buffer to 25 μL of extract containing […] and Assay Buffer, followed by a 10 minute incubation at room temperature. 50 μL of 40 μM palmitoyl-CoA in Assay Buffer was added to the reaction mixture, mixed and incubated for 10 minutes at room temperature. A negative control for activity was also performed where the carnitine was omitted from the reaction. A positive control for activity was also performed by omitting compound from the solution containing 20% DMSO and Assay Buffer. The reaction mixture was extracted and analyzed as described above. The inhibition by compound was determined by comparing the control relative activity to the relative activity observed in wells containing the compound. Relative activity was determined by subtracting the relative intensity (area palmitoyl carnitine/area myristoyl carnitine) observed in the negative control from the relative intensity observed in the experimental well, and dividing by the relative activity observed in the positive control.
[formula] Compound characterization by dose response format was performed using the above described assay conditions and a 16 point compound titration in 2 fold compound dilution steps. The DMSO concentration was kept constant at 20% (v/v) for all compound concentrations.

IC50 [µM]	SMILES
100 to 1000	C[N+](C)(C)C[C@@H](CC(=O)[O-])NC(=O)c1cccc(C#Cc2ccccc2)c1 [Example S48, (R)-3-(3-(phenylethynyl)benzamido)-4-(trimethylammonio)butanoate]
100 to 1000	C[N+](C)(C)C[C@@H](CC(=O)[O-])NC(=O)c1ccc(Oc2ccccc2)nc1 [Example S50, (R)-3-(6-phenoxynicotinamido)-4-(trimethylammonio)butanoate]
1000 to 2500	C[N+](C)(C)C[C@@H](CC(=O)[O-])NC(=O)c1ccc(OCC(F)(F)F)nc1 [Example S52, (R)-3-(6-(2,2,2-trifluoroethoxy)nicotinamido)-4-(trimethylammonio)butanoate]
> 2500	CC(=O)Nc1ccc(C(=O)N[C@H](CC(=O)[O-])C[N+](C)(C)C)cc1 [Example S53, (R)-3-(4-acetamidobenzamido)-4-(trimethylammonio)butanoate]
100 to 1000	CC(C)(C)c1ccc(OCc2ccc(C(=O)N[C@H](CC(=O)[O-])C[N+](C)(C)C)o2)cc1 [Example S60, (R)-3-(5-((4-tert-butylphenoxy)methyl)furan-2-carboxamido)-4-(trimethyl-ammonio)butanoate]

Second part, the molecule before the results:

SMILES	IC50 [µM]
C[N+](C)(C)C[C@@H](CC(=O)O)NC(=O)c1ccc(-c2cccs2)s1 [Example S44, (R)-3-(2,2′-bithiophene-5-carboxamido)-4-(trimethylammonio)butanoate]	100 to 1000
C[N+](C)(C)C[C@@H](CC(=O)O)NC(=O)c1ccc(CCc2ccccc2)s1 [Example S45, (R)-3-(5-phenethylthiophene-2-carboxamido)-4-(trimethylammonio)-butanoate]	≤ 1
C[N+](C)(C)C[C@@H](CC(=O)O)NC(=O)c1cccc(CCc2ccccc2)c1 [Example S46, (R)-3-(3-phenethylbenzamido)-4-(trimethylammonio)butanoate]	100 to 1000
Cc1ncoc1C(=O)N[C@H](CC(=O)O)C[N+](C)(C)C [Example S49, (R)-3-carboxy-N,N,N-trimethyl-2-(4-methyloxazole-5-carboxamido)-propan-1-aminium trifluoroacetate]	100 to 1000
Cc1nc(-c2cnccn2)sc1C(=O)N[C@H](CC(=O)[O-])C[N+](C)(C)C [Example S51, (R)-3-(4-methyl-2-(pyrazin-2-yl)thiazole-5-carboxamido)-4-(trimethyl-ammonio)butanoate]	> 2500
CCCn1cc(C(=O)N[C@H](CC(=O)[O-])C[N+](C)(C)C)c(C)n1 [Example S54, (R)-3-(3-methyl-1-propyl-1H-pyrazole-4-carboxamido)-4-(trimethyl-ammonio)butanoate]	1000 to 2500
CCCc1ccc(OCc2ccc(C(=O)N[C@H](CC(=O)[O-])C[N+](C)(C)C)o2)c(OC)c1 [Example S55, (R)-3-(5-((2-methoxy-4-propylphenoxy)methyl)furan-2-carboxamido)-4-(trimethylammonio)butanoate]	10 to 100
C[N+](C)(C)C[C@@H](CC(=O)[O-])NC(=O)c1ccc(CSCc2ccccc2)o1 [Example S56, (R)-3-(5-(benzylthiomethyl)furan-2-carboxamido)-4-(trimethylammonio)-butanoate]	1 to 10
C[N+](C)(C)C[C@@H](CC(=O)O)NC(=O)c1cccc(-c2cc[nH]n2)c1 [Example S57, (R)-3-(3-(1H-pyrazol-3-yl)benzamido)-4-(trimethylammonio)butanoate trifluoroacetate]	> 2500
C[N+](C)(C)C[C@@H](CC(=O)[O-])NC(=O)c1ccc(COc2cccc3ccccc23)o1 [Example S58, (R)-3-(5-((naphthalen-1-yloxy)methyl)furan-2-carboxamido)-4-(trimethyl-ammonio)butanoate]	1 to 10
C[N+](C)(C)C[C@@H](CC(=O)[O-])NC(=O)c1ccc(CN2CCOCC2)o1 [Example S59, (R)-3-(5-(morpholinomethyl)furan-2-carboxamido)-4-(trimethylammonio)-butanoate]	1000 to 2500
